Reference: patent US9581606B2, “Method for determining depression, kit for analyzing serotonin transporter, and kit for analyzing ubiquitinated serotonin transporter in blood” (MEIJO UNIVERSITY, priority 2011, dated 2017)
Where a SMILES comes first, the peptide text is derived from it. The star is where a group is joined. Cbz = O=C(OCc1ccccc1)*

Columns and labels:
[1] = system: ubiquitinated serotonin transporter protein; assay: Expression amount of ubiquitinated serotonin transporter protein in established lymphocytes (UBIQAPTURE-Q kit, Western blotting); format: cell-based, human; conditions: MG132 20 μM, 4 hours
Protocol: The mouse brain sample, cells, and established lymphocytes were subjected to ultrasonic fragmentation at 4° C. using a sonicator in a lysis buffer [20 mM Tris-HCl, 150 mM NaCl, 50 mM NaF, 1 mM EDTA, 1 mM EGTA, 1% (w/v) TRITONX-100, 1 mM sodium orthovanadate, 0.1% (w/v) SDS, 1% (w/v) sodium deoxycholate, 0.5 mM dithiothreitol, 10 mM sodium pyrophosphate decahydrate, 1 mM phenylmethylsulfonyl fluoride, 10 μg/mL aprotinin, 10 μg/mL leupeptin, and 10 μg/mL pepstatin (pH 7.4)], and thus a homogenate was obtained through these operations. The homogenate was centrifuged for 20 minutes at 4° C. and 13000×g, and the supernatant thus obtained was used. A sample buffer [0.125 M Tris-HCl (pH 6.8), 2% (w/v) SDS, 5% (w/v) glycerol, 0.002% (w/v) bromophenol blue, and 5% (w/v) 2-mercaptoethanol] was added to each of the supernatant samples whose protein content had been adjusted, and then boiled at 95° C. for 5 minutes. Thereafter, the protein (20 μg) was subjected to electrophoresis using a 10% polyacrylamide gel, the protein was transferred to a polyvinylidene difluoride (PVDF) membrane (Millipore Corporation, Billerica, Mass., USA), and blocked using Detector Block Kit (Kirkegaard and Perry Laboratories, Gaithersburg, Md., USA). […] The luminescence due to the immune complex was detected using ECL (GE Healthcare Biosciences, Piscataway, N.J., USA), which is a Western blotting detection reagent, and the expression amount was calculated by the image analysis of the luminescence intensity. […]
According to the procedure in the above-described A (5), the ubiquitinated protein was isolated from the homogenate homogenized with a lysis buffer using UBIQAPTURE-Q kit (Enzo Life Sciences International, Inc, Plymouth Meeting, Pa.), and the ubiquitinated serotonin transporter protein was detected by Western blotting under the same conditions as in the A (5). […]

[2] = system: serotonin transporter protein; assay: Expression amount of serotonin transporter protein in established lymphocytes (Western blotting); format: cell-based, human; conditions: for expression amount of the serotonin transporter: MG132 20 μM, 4 hours, control = healthy subjects without MG132
Protocol: The mouse brain sample, cells, and established lymphocytes were subjected to ultrasonic fragmentation at 4° C. using a sonicator in a lysis buffer [20 mM Tris-HCl, 150 mM NaCl, 50 mM NaF, 1 mM EDTA, 1 mM EGTA, 1% (w/v) TRITONX-100, 1 mM sodium orthovanadate, 0.1% (w/v) SDS, 1% (w/v) sodium deoxycholate, 0.5 mM dithiothreitol, 10 mM sodium pyrophosphate decahydrate, 1 mM phenylmethylsulfonyl fluoride, 10 μg/mL aprotinin, 10 μg/mL leupeptin, and 10 μg/mL pepstatin (pH 7.4)], and thus a homogenate was obtained through these operations. The homogenate was centrifuged for 20 minutes at 4° C. and 13000×g, and the supernatant thus obtained was used. A sample buffer [0.125 M Tris-HCl (pH 6.8), 2% (w/v) SDS, 5% (w/v) glycerol, 0.002% (w/v) bromophenol blue, and 5% (w/v) 2-mercaptoethanol] was added to each of the supernatant samples whose protein content had been adjusted, and then boiled at 95° C. for 5 minutes. Thereafter, the protein (20 μg) was subjected to electrophoresis using a 10% polyacrylamide gel, the protein was transferred to a polyvinylidene difluoride (PVDF) membrane (Millipore Corporation, Billerica, Mass., USA), and blocked using Detector Block Kit (Kirkegaard and Perry Laboratories, Gaithersburg, Md., USA). A primary antibody (anti-SERT) (Millipore, Billerica, Mass.) against the serotonin transporter protein was added to the PVDF membrane, allowed to stand overnight in a refrigerator (4° C.), and then a secondary antibody (HRP-conjugated anti-rabbit IgG) (Kirkegaard and Perry Laboratories) was added, and allowed to stand at room temperature for 3 hours. The luminescence due to the immune complex was detected using ECL (GE Healthcare Biosciences, Piscataway, N.J., USA), which is a Western blotting detection reagent, and the expression amount was calculated by the image analysis of the luminescence intensity.
Subsequently, in order to determine the expression amount of the β-actin protein as the endogenous reference material, stripping was carried out, a primary antibody (anti-β-actin) (Santa Cruz Biotechnology, Santa Cruz, Calif.) was added, and incubated. In the result thus obtained, the band of the serotonin transporter protein was corrected by the band of the β actin protein, and the expression amount to the control group was expressed in terms of the percentage (%).
Each of the blood samples aseptically collected from the above objects was diluted two folds with a sterile normal saline solution. Subsequently, the diluted blood sample was quietly poured into the tube containing 3.5 ml of the Ficoll-Paque liquid (General Electric Company, Uppsala, Sweden), and centrifuged at 600×g for 30 minutes. […]

wild type C57BL/6J mouse = assay: Forced swimming test, control mouse; format: in vivo
Protocol: (§1) Experimental equipment and procedure: the experimental equipment was a water tank (diameter 15 cm×height 20 cm) containing water (water temperature about 22° C.×depth 13 cm). The wild type C57BL/6J mouse as the control or the model mouse was placed in the water tank, and immediately after that, the immobility time was measured using Scanet MV-10AQ (Brainscience Idea, Co., Ltd. Osaka, Japan) for 10 minutes at intervals of 1 minute.
(§2) 5 or 10 mg/kg sertraline (Pfizer, Groton, CT) suspended in 0.3% carboxymethyl cellulose sodium, and 10 or 20 mg/kg imipramine (Sigma, St. Louis, Mo.) dissolved in a normal saline solution were intraperitoneally administered 30 minutes before the main test. As the control, the solvent was intraperitoneally administered.

[3] = system: MAGE-D1 gene-deficient mouse; assay: Forced swimming test, model mouse; format: in vivo; conditions: for effect on the increase of the immobility time: forced swimming test (FIG. 1)
Excerpt: The targeting vector (Stratagene: pBlueScript), which allow homologous recombination between the MAGE-D1 gene (Gene bank: NM_019791.2) exon and the drug (G418)-resistant gene (GenBank: U00004.1), was electroporated into the embryonic stem (ES) cells (acquired from Research Institute of National Center for Geriatrics and Gerontology) derived from the 129Svj mouse, and the drug-resistant colony was selected. The homologous recombinant was identified from the selected resistant colony by Southern blotting. The desired homologous recombinant ES cell clone thus identified was injected into the blastocyst stage embryo of the C57BL/6J mouse, thereby making a chimera mouse. The chimera mouse was mated with the wild type C57BL/6J mouse, thereby making a hetero MAGE-D1 gene-deficient mouse of F1 generation. The wild type C57BL/6J was mated with the hetero MAGE-D1 gene-deficient mouse up to the F10 generation, and the mouse having 99.9 percent (as a result of one mating with the C57BL/6J mouse, about half the genes of the newborn mouse are derived from the C57BL/6J mouse used for mating; in other words, as a result of the n times of mating with the C57BL/6J mouse, about [1−(1/2)^n+1]×100% genes are likely derived from the C57BL/6J mouse) C57BL/6J genetic background was used. The mouse having the genetic background was used as the MAGE-D1 gene-deficient mouse (hereinafter may be referred to as model mouse) in the following test.
as §1, §2

[4] = established lymphocytes from patients with depression to whom the antidepressant was not effective
[5] = 10 mg/kg intraperitoneally 30 minutes before test
[6] = 20 mg/kg intraperitoneally 30 minutes before test
[7] = 5 mg/kg intraperitoneally 30 minutes before test

| Compound | expression amount of the ubiquitinated serotonin transporter ([1]; established lymphocytes from healthy subjects, control = healthy subjects without MG132) [%] | expression amount of the ubiquitinated serotonin transporter ([1]; established lymphocytes from patients with depression to whom fluvoxamine was effective) [%] | expression amount of the ubiquitinated serotonin transporter [1, 4] [%] | expression amount of the serotonin transporter ([2]; established lymphocytes from healthy subjects) [%] | expression amount of the serotonin transporter ([2]; established lymphocytes from patients with depression to whom the antidepressant was effective) [%] | expression amount of the serotonin transporter [2, 4] [%] | effect of addition on the expression amount of the serotonin transporter ([2]; established lymphocytes of the patients with depression, regardless of effect of the antidepressant) | average of the immobility time ratio (wild type C57BL/6J mouse; [5]) [%] | average of the immobility time ratio (wild type C57BL/6J mouse; [6]) [%] | average of the immobility time ratio [3, 5] [%] | average of the immobility time ratio [3, 6] [%] | effect on the increase of the immobility time [3] | average of the immobility time ratio (wild type C57BL/6J mouse; [7]) [%] | average of the immobility time ratio [3, 7] [%] |
| --- | --- | --- | --- | --- | --- | --- | --- | --- | --- | --- | --- | --- | --- | --- |
| CC(C)C[C@@H](C=O)NC(=O)[C@H](CC(C)C)NC(=O)[C@H](CC(C)C)NC(=O)OCc1ccccc1 [MG132] (Cbz-Leu-Leu-Leu-aldehyde) | 130.6 | 103.4 | 88.5 | 173.8 | 141.9 | 143.6 | did not significantly increase |  |  |  |  |  |  |  |
| CN(C)CCCN1c2ccccc2CCc2ccccc21 [imipramine] |  |  |  |  |  |  |  | 47.7 | 39.0 | 60.2 | 40.6 | significantly and dose-dependently decreased |  |  |
| CN[C@H]1CC[C@@H](c2ccc(Cl)c(Cl)c2)c2ccccc21 [sertraline] |  |  |  |  |  |  |  | 37.7 |  | 45.7 |  | significantly and dose-dependently decreased | 37.4 | 56.3 |
